Earlier results in US20200209238A1, “OPTIMIZING DIAGNOSTICS FOR GALACTOFURANOSE CONTAINING ANTIGENS” (The Johns Hopkins University, priority 2017, published 2020).

Target: T1, hINTL-1 (Homo sapiens, UniProt Q8WWA0)
T1 construct: from tissue; host or cells: human urine
T1 sequence (Q8WWA0 19-298): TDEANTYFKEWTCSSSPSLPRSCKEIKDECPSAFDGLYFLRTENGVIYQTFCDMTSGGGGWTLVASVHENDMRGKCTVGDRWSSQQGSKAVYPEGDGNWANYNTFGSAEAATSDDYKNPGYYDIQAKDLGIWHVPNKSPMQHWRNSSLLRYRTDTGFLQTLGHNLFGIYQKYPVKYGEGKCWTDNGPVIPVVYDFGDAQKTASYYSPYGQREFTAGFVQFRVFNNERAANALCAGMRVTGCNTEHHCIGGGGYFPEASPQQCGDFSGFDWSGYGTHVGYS

SMILES: CC(=O)N[C@H]1[C@H]([C@H](O)[C@H](O)CO)OC(O)(C(=O)O)C[C@@H]1O (stereo partly shown) [N-Acetylneuraminic acid (Neu5Ac), N-Acetylneuraminic acid]
- binding to hIntL-1: does not bind
